Experimental data from PMC4502414, “Transforming berberine into its intestine-absorbable form by the gut microbiota” (Scientific Reports, 2015).

Experiments:
Caco-2 cells = assay: Absorption of BBR and dhBBR in Caco-2 cells; type: in vitro ADME; conditions: Caco-2
Description: (§1) A Caco-2 cell assay was conducted using a method reported previously. […] To determine the rate of drug transport in the apical-to-basolateral direction, 200 μl of the compound working solution was added to the filter well (apical compartment), and 800 μl of HBSS was added to the receiver plate (basolateral compartment). Accordingly, to determine the rate of drug transport in the basolateral-to-apical direction, 800 μl of the compound working solution was added to each well of the receiver plate and 200 μl of HBSS was added to the filter well. The plates were incubated for 30 min at 37 °C with shaking at 150 rpm on a rotary shaker. At the end of the transport period, aliquots of 50 μl were removed directly from the apical and basolateral wells and transferred to wells of new plates. Four volumes of cold methanol containing internal standards were added into each well. The samples were centrifuged at 16,000 g for 15 min. Aliquots of 200 μl of the supernatant were used for the LC-MS/MS analysis.

[1] = Absorption of BBR and dhBBR in Caco-2 cells; type: in vitro ADME; conditions: human
Description: as §1

[2] = test system: rat large intestinal bacteria (RLIB); assay: Conversion of BBR into dhBBR by rat large intestinal bacteria in vitro; type: in vitro ADME; conditions: BBR incubated with rat large intestinal bacteria
Description: The method was reported previously. Briefly, colon contents from six rats were pooled, and 5 g of the sample was transferred into a flask containing the anaerobic medium (100 ml). After thorough mixing, the cultures (which contained intestinal bacteria and anaerobic medium) were pre-incubated under anaerobic conditions with a N2 atmosphere at 37 °C for 60 min. Rutin (10 μl, 1.0 mg/ml in methanol) was used as a positive reference for intestinal metabolism.
Ten microliters of BBR at different concentrations was added into the fresh human or rat intestinal bacteria cultures (990 μl), with methanol (10 μl) as the negative control. The final concentrations of BBR in the incubation system were 100, 10, and 5 μg/ml. The cultures were incubated at 37 °C for 72 h in the presence or absence of human or rat intestinal bacteria.
After termination of the reaction with acetonitrile (1 ml), 50 μl of the internal standard (tetrahydropalmatine, 2.0 mg/ml in methanol) was added into the BBR samples, which were then mixed for 30 sec and centrifuged at 7,500 g for 15 min. The supernatant was dried under nitrogen flow at room temperature, and the residue was dissolved in 100 μl of methanol and centrifuged at 7,500 g for 15 min. The metabolites were analyzed by LC/MS^n-IT-TOF using a previously reported method. […]

[3] = Distribution of dhBBR in organs of SD rats orally treated with BBR; type: in vivo; conditions: 24 h after oral BBR 200 mg/kg
Description: Three segments of small intestine (duodenum, jejunum and ileum) were collected 0, 6, 12, 24, 36, and 48 h after the oral administration of BBR in SD rats. The small intestine tissues were washed thoroughly with saline and dried. After being weighed, the samples were homogenized with mixed solution (ethanol: water, 1:1) at a ratio of 1:2 [w(g)/v(ml)]. The samples were centrifuged at 7,500 g for 10 min, and the supernatant was collected and evaporated to dryness in a water bath at 40 °C using a rotary evaporator. The residues of the tissue extraction were dissolved in methanol (250 μl) and vortex-mixed for 5 min. The tissue solution was then centrifuged (at 14,000 g for 5 min), and the supernatant was passed through a 0.22-μm filter. An aliquot of 1 μl of the supernatant was injected into the GC-MS instrument, and a 10-μl aliquot was used for LC-MS/MS analysis. The level of dhBBR was calculated based on the standard curve, and BBR and other metabolites was quantified using the method described above.

[4] = Transformation of dhBBR in pooled human intestinal microsomes (HIMs); type: in vitro ADME
Description: The mixture was incubated at 37 °C with exposure to air for 2, 5 and 10 min and was terminated by the addition of 200 μl of ice-cold acetonitrile. Then, 20 μl of the internal standard was added to the mixture, and the mixture was centrifuged at 14,000 g for 5 min. Fifty microliters of the supernatant was injected into the HPLC instrument for analysis. The control samples were incubated under the same conditions but without HIMs.

[5] = 72-h cumulative fecal excretion of BBR and dhBBR in pseudo germ-free (PGF) and conventional rats; type: in vivo, SD rats; conditions: oral BBR 200 mg/kg
Description: Male SD rats (180–200 g) were orally treated with cefadroxil (100 mg/kg), terramycin (300 mg/kg) and erythromycin (300 mg/kg) twice a day for 3 days, and pharmacokinetic examination was performed 2 days after final administration. The colon contents of the rats were collected on the first and third days after the final treatment with antibiotics, and the germ-free status was confirmed by culturing fecal samples aerobically on a nutrient agar culture medium. Fecal samples from non-antibiotic-exposed rats served as control samples. Before oral administration of a single dose of BBR (200 mg/kg), the PGF rats were fasted overnight with free access to water. […] The samples were stored at −20 °C for further analysis.

[6] = Excretion of BBR, dhBBR and other BBR metabolites in rat feces, urine and bile after oral BBR; type: in vivo, SD rats
Description: For the analysis of the in vivo intestinal metabolites of BBR, six SD rats were orally treated with BBR (200 mg/kg), and their feces were collected 0, 6, 12, 24, 36, 48, and 72 h after treatment. The method used for the preparation of the feces was reported previously. An aliquot of 1 μl was injected into the GC-MS instrument. The level of dhBBR in feces was measured and calculated based on the standard curve obtained with the in vitro intestinal bacteria incubation mixture.

[7] = Effect of heat inactivation and vitamin C on dhBBR-to-BBR transformation in rat small intestine homogenate; type: in vitro ADME; conditions: homogenate boiled for 2 min
Description: The rats (n = 3) were sacrificed to obtain fresh small intestine homogenate. The homogenate was then boiled for 2 min to inactivate all of the enzymes. After pre-incubation at 37 °C for 2 min, 5 μl of dhBBR (10 mM, dissolved in DMSO) was added into the inactivated homogenate, and fresh homogenate (active one) was used as a reference. The sample was mixed thoroughly and centrifuged at 16,000 g for 5 min. The supernatant was transferred into new tubes, treated with 500 μl of acetonitrile, and then centrifuged. Twenty-microliter aliquots were used for the HPLC analysis.
To examine the oxidative reaction, 100 μl of vitamin C was pre-incubated with the inactivated homogenate; the final concentrations of vitamin C were 95, 9.5 and 0.95 mM. The superoxide anion in the sample was detected with an O2^− ELISA kit (Beijing Biolab Co., Ltd., Beijing, China; lot: 201404) following the manufacturer’s instructions.

For `COc1ccc2c(c1OC)CN1CCc3cc4c(cc3C1=C2)OCO4` [dhBBR, dihydroberberine], the “fold Papp (AP-BL) of dhBBR over BBR” value (Caco-2 cells) was 11.9 fold, the efflux ratio at 30 min, 5 μM ([1]; Caco-2, pH 7.4, read-out: efflux ratio (ER)) was 1.58 and the Papp A→B at 30 min, 5 μM ([1]; pH 7.4, Caco-2, 5 μM, 30 min) was 4.51 ×10⁻⁶ cm/s. The “incubation time until dhBBR became detectable” value [2] was at most 24 h, the “organs in which dhBBR was detected” value [3] was “detected in intestinal tissue only” and the dhBBR-to-BBR reversion [4] was “very rapidly”. For the same compound, the “72-h-cumulative dhBBR in feces, % of the giving amount of BBR” value ([5]; PGF rats) was 6.09%, the “72-h-cumulative dhBBR in feces, % of the giving amount of BBR” value ([5]; untreated (conventional) rats) was 18.21% and the “time of peak amount of dhBBR in feces” value ([6]; after oral BBR) was 12 to 24 h. For the same compound, the “detection of dhBBR in rat excretions” value ([6]; oral BBR, 72-h period, urine, bile and feces) was “detected only in feces” and the “effect of heat inactivation of homogenate on dhBBR-to-BBR reversion” value [7] was “did not reduce the dhBBR-to-BBR reversion”.
